In the NIST ThermoML archive (doi:10.1021/je301220s):
± gives the expanded uncertainty stated by the source.

Conditions: Liquid; for mass density: 298.15 K, 101.33 kPa, Vibrating tube method

Structure (SMILES)	mass density	Normal boiling temperature
Cc1ccccc1C [1,2-dimethylbenzene]	875.81 ± 0.16 kg/m3	144.40 ± 0.5 °C
Cc1ccc(C)cc1 [1,4-dimethylbenzene]	856.54 ± 0.16 kg/m3	138.28 ± 0.5 °C
CCc1ccccc1 [ethylbenzene]	862.57 ± 0.16 kg/m3	136.16 ± 0.5 °C
CCC(C)CO (stereo not given) [2-methyl-1-butanol]	814.83 ± 0.17 kg/m3	128.76 ± 0.5 °C
Cc1cccc(C)c1 [1,3-dimethylbenzene]	860.06 ± 0.16 kg/m3	139.13 ± 0.5 °C
